This note sets out measurements from patent US9394549B2, “Method for producing useful chemical substance from terephthalic acid potassium salt” (GENARIS, INC., priority 2012, dated 2016).

The subject of data set [1] is protocatechuic acid-producing Escherichia coli strain M7032 (pUXPEaLT_tphA2A3BA1_tpaK). Put plainly: Production of protocatechuic acid from terephthalic acid salt in jar fermentor culture. The data set is classed as cell-based. The note with it: for Ratio of the capacity in production (protocatechuic acid): disodium terephthalate as 100%. On the procedure:
A protocatechuic acid-producing plasmid pUXPEaLT_tphA2A3BA1_tpaK constructed in Reference Example 2 was introduced into Escherichia coli M7032 strain by a transformation method to obtain a protocatechuic acid-producing Escherichia coli strain M7032 (pUXPEaLT_tphA2A3BA1_tpaK).
(§1) Subsequently, in the same manner as described in Example 2, the preculture of the present protocatechuic acid-producing bacterium was prepared and then merely 2% of such a preculture was inoculated in a main culture medium to carry out main culture. When the bacterial cell turbidity reached about 7 at an absorbance of 600 nm, an inducer m-toluic acid was added such that the final concentration thereof came to 1 mM to express terephthalate 1,2-dioxygenase protein, terephthalate 1,2-dioxygenase reductase protein, terephthalate dihydrodiol dehydrogenase protein, and terephthalic acid transporter protein. The glucose concentration was measured with time. When the glucose concentration reached 0, the glucose and substrate mixed solution was administered.
Sampling was carried out 48 hours after the start of the main culture. Each of the samples was subjected to analysis by an LC-TOF type mass spectrometer (Waters Corporation, LCT Premier XE). Identification of terephthalic acid and protocatechuic acid was carried out with a combination of retention time of high performance liquid chromatography and an accurate mass value from the mass spectrometer, comparing to a standard sample of terephthalic acid and protocatechuic acid.
(§2) Using the protocatechuic acid-producing Escherichia coli strain M7032 (pUXPEaLT_tphA2A3BA1_tpaK) created in Reference Example 2, in the same manner as described in Example 2, the preculture of the present protocatechuic acid-producing bacteria was prepared and then merely 2% of such a preculture was inoculated in a main culture medium to carry out main culture. When the bacterial cell turbidity reached about 7 at an absorbance of 600 nm, an inducer m-toluic acid was added such that the final concentration thereof came to 1 mM to express terephthalate 1,2-dioxygenase protein, terephthalate 1,2-dioxygenase reductase protein, terephthalate dihydrodiol dehydrogenase protein, and terephthalic acid transporter protein. The glucose concentration was measured with time. When the glucose concentration reached 0, the terephthalic acid salt derived from PET, which was prepared in Example 6, was dissolved such that the concentration thereof was 0.6M, mixed with glucose, and administered to a culture device.
Sampling was carried out 52 hours after the start of the main culture. Each of the samples was subjected to analysis by an LC-TOF type mass spectrometer (Waters Corporation, LCT Premier XE). Identification of terephthalic acid and protocatechuic acid was carried out with a combination of retention time of high performance liquid chromatography and an accurate mass value from the mass spectrometer, comparing to a standard sample of terephthalic acid and protocatechuic acid.
as §2, with “acid-producing bacterium” for “acid-producing bacteria”, “time. […]” for “time. When the glucose concentration reached 0, the terephthalic acid salt derived from PET, which was prepared in Example 6, was dissolved such that the concentration thereof was 0.6M, mixed with glucose, and administered to a culture device.”

Data set [2] has as its system gallic acid-producing Escherichia coli strain M7032 (pUXPEaLT_HFM145_tphA2A3BA1_tpaK). Put plainly: Production of gallic acid from terephthalic acid salt in jar fermentor culture. The class given is cell-based. The note with it: for Gallic acid: 0.6 M salt solution as raw material, 48 hours after the start of the main culture; for Ratio of the capacity in production (gallic acid): 48 hours, disodium terephthalate as 100%. On the procedure:
as §1, with “A gallic acid plasmid pUXPEaLT_HFM145_tphA2A3BA1_tpaK constructed in Reference Example 2 was introduced into Escherichia coli M7032 strain by a transformation method to obtain a gallic acid-producing Escherichia coli strain M7032 (pUXPEaLT_HFM145_tphA2A3BA1_tpaK). Subsequently,” for “Subsequently,”, “this gallic” for “the present protocatechuic”, “this” for “such a”, “culture in the above condition.” for “culture.”, “protein,” for “protein, and”, “protein and improved para-hydroxybenzoate hydroxylase.” for “protein.”
Sampling was carried out 48 hours after the start of the main culture. Each of the samples was subjected to analysis by an LC-TOF type mass spectrometer (Waters Corporation, LCT Premier XE). Identification of gallic acid and protocatechuic acid was carried out with a combination of retention time of high performance liquid chromatography and an accurate mass value from the mass spectrometer, comparing to a standard sample of terephthalic acid and gallic acid.

Data set [3] in a line: Solubility of terephthalic acid salts in 1-butanol. The note with it: organic solvent or mixture, same manner as Example 1. The class given is physicochemical. The source says:
As just seen above, it was found out that, unlike the dissolution in ethylene glycol, the dissolution in 1-butanol was very poor.

Where [4] appears, read: 0.6 M salt solution as raw material, 48 hours after the start of the main culture.
Where [5] appears, read: salt obtained by depolymerization of PBT (Example 8), 0.6M, 48 hours.
The mark [6] stands for this setting: salt obtained by depolymerization of PET (Example 6), 0.6M, 52 hours.

The term solubility denotes the concentration that dissolves in the medium under given conditions.

As to `N.O=C([O-])c1ccc(C(=O)O)cc1.[K+]` [1-potassium 4-ammonium terephthalate], the Protocatechuic acid in data set [1] (setting [4]) worked out at 7.1 g/L. For the same compound, the “Ratio of the capacity in production (protocatechuic acid)” value (shortened to “Ratio … (protocatechuic acid)”) in data set [1] (48 hours) was 142%. In data set [2], the Gallic acid is on record as 8.5 g/L and the “Ratio of the capacity in production (gallic acid)” value (from here on “Ratio … (gallic acid)”) was 112%.
Take `O=C([O-])c1ccc(C(=O)[O-])cc1.[K+].[Na+]` [1-potassium 4-sodium terephthalate]: the figures for the Protocatechuic acid in data set [1] (setting [4]), in data set [1] (setting [5]) and in data set [1] (setting [6]) were 7.7 g/L, 11.0 g/L and 11.1 g/L, respectively. The “Ratio … (protocatechuic acid)” value in data set [1] (48 hours) is recorded as 154%; in data set [1] (salt from PBT, 48 hours), 108%; in data set [1] (salt from PET, 52 hours), 108%. Besides, the Gallic acid in data set [2] worked out at 8.4 g/L. Also, in data set [2], the “Ratio … (gallic acid)” value is reported as 111%.
In the case of `O=C([O-])c1ccc(C(=O)[O-])cc1.[K+].[K+]` [Dipotassium terephthalate, dipotassium terephthalate], the Protocatechuic acid was 8.3 g/L in data set [1] (setting [4]), 11.6 g/L in data set [1] (setting [5]) and 11.5 g/L in data set [1] (setting [6]). Further, the “Ratio … (protocatechuic acid)” value was determined as 166% in data set [1] (48 hours); 114% in data set [1] (salt from PBT, 48 hours); 113% in data set [1] (salt from PET, 52 hours). Further, the solubility in data set [3] was determined as 200 µM. Moreover, the Gallic acid in data set [2] came out at 8.6 g/L. Besides, in data set [2], the “Ratio … (gallic acid)” value was found to be 113%.
As to `O=C([O-])c1ccc(C(=O)[O-])cc1.[Na+].[Na+]` [Disodium terephthalate, disodium terephthalate, reference compound], the Protocatechuic acid in data set [1] (setting [4]) is reported as 5.0 g/L; in data set [1] (setting [5]), 10.2 g/L; in data set [1] (setting [6]), 10.2 g/L. The “Ratio … (protocatechuic acid)” value in data set [1] (48 hours) stood at 100%; in data set [1] (salt from PBT, 48 hours), 100%; in data set [1] (salt from PET, 52 hours) it was 100%. The solubility in data set [3] came out at 1900 µM. The Gallic acid in data set [2] is given as 7.6 g/L. In addition, in data set [2], the “Ratio … (gallic acid)” value is 100%.
